Experimental data reported in patent US4254126A, “4-Carbethoxy-carbonilamino-pyrimidines and a process for their preparation” (POLI Industria Chimica S.p.A., priority 1978, dated 1981).
Where two headings read alike, the source gives them in different places.

Key:
Format in all cases: in vivo
gastric acid secretion = experiment: inhibition of gastric acid secretion in pylorus ligated rats (Shay rats); details: Rattus norvegicus, po, os, 50% inhibition of gastric acid secretion, read-out: Antisecretory and antiulcer activity ED50 Shay
Source text: (§1) The pharmacological study of the antiulcer activity of the compounds, in accordance with the present invention, has been carried out determining the dose which inhibits the gastric acid secretion by 50% (ED50) in pylorus ligated rats (Shay rats) according to the method described by Shay et al., in Gastroenterology 26, 906, 1954, the dose which reduces by 50% (ED50) the indomethacin-induced ulcers according to the procedure described by Leet et al., in Arch. Int. Pharmacodyn. 191, 370, 1971 and the dose which reduces by 50% (ED50) the ulcers by cold and restraint according to the procedure described by Senay and Levine in Proc. Soc. Exp. Biol. Med. 124, 1221, 1967.

[1] = system: ulcers by cold and restraint; experiment: ulcers by cold and restraint; details: Rattus norvegicus, po; os, 50% reduction of ulcers by cold and restraint; read-out: Antisecretory and antiulcer activity ED50 Restraint
Source text: as §1

[2] = system: Passive Cutaneous Anaphylaxis; experiment: Passive Cutaneous Anaphylaxis (PCA test) in the Rat; details: administered 5 minutes before the antigen
Experimental: The compounds of general formula (I) are all endowed with an extremely low toxicity (the DL50 per os in rats is higher than 1600 mg/kg for all the compounds) and they are rapidly absorbed through oral administration, so that the DE50 (the dosage capable of reducing the effects of the noxious stimulus by 50%) in the Passive Cutaneous Anaphylaxis Test in the rat is almost the same whether administered orally or intraperitoneally.
(a) Production of antiovalbumin reaginic serum. Male rats (COBS-CD) weighing 300 to 400 g, are immunized by intramuscular injection of 0.1 ml/kg of ovalbumin solution obtained by dissolving 20 mg of ovalbumin (Sigma) in 1 ml of saline and by intraperitoneal injection of 1 ml of pertussis vaccine (Abetin Sclavo). After eleven days the animals are killed, the blood collected and after one night at 4° C., centrifuged and sera stored at -20° C.
(b) PCA test--Male rats (COBS-CD) weighing 125 to 135 g were sensitized by two intradermal injections on the shaved back of 0.1 ml of anti-ovalbumin serum. After 24 hours, 25 mg/kg of ovalbumin and 25 mg/kg of Evans blue are injected intravenously and thirty minutes later the animals are killed, the skin of the back removed and the major and minor diameters of the two spots on the reflected skin are measured.

[3] = system: indomethacin-induced ulcers; experiment: indomethacin-induced ulcers; details: Rattus norvegicus, po; os, 50% reduction of indomethacin-induced ulcers; read-out: Antisecretory and antiulcer activity ED50 Indometacin
Source text: as §1

[4] = ip, intraperitoneal, read-out: PCA Test ED50 l.p.
[5] = po, os, read-out: PCA Test ED50 os

| Structure (SMILES) | ED50 (gastric acid secretion) | ED50 [1] | ED50 [2, 4] | ED50 [2, 5] | ED50 [3] |
| --- | --- | --- | --- | --- | --- |
| CCOC(=O)C(=O)Nc1cc(SCCOCCOC)ncn1 [Symbol 965] | 8.3 mg/kg | 17 mg/kg | 7.3 mg/kg | 20 mg/kg | 6.1 mg/kg |
| CCOC(=O)C(=O)Nc1cc(OCCOCc2ccccc2)nc(C)n1 [Symbol 927] | 6.4 mg/kg | 16 mg/kg | 23 mg/kg | 80 mg/kg | 14.8 mg/kg |
| CCOC(=O)C(=O)Nc1cc(OC)nc(OC)n1 [Symbol 934] | 4.1 mg/kg | 11 mg/kg | 25 mg/kg | > 100 mg/kg | 5.6 mg/kg |
| CCOC(=O)CCCSc1cc(NC(=O)C(=O)OCC)ncn1 [Symbol 953] | 7.2 mg/kg | 12 mg/kg | 3.2 mg/kg | 26 mg/kg | 8.8 mg/kg |
| CCOC(=O)C(=O)Nc1cc(OC)ncn1 [Symbol 907] | 3.2 mg/kg | 12 mg/kg | 32 mg/kg | 100 mg/kg | 4.6 mg/kg |
| CCOC(=O)C(=O)Nc1cc(SCCOC(=O)C(=O)OCC)nc(C)n1 [Symbol 929] | 8.4 mg/kg | 18 mg/kg | 2.4 mg/kg | 18 mg/kg | 22.2 mg/kg |
| CCOC(=O)C(=O)Nc1cc(OCCOCCOC)ncn1 [Symbol 963] | 6.1 mg/kg | 16 mg/kg | 6.2 mg/kg | 24 mg/kg | 7.3 mg/kg |
| CCOC(=O)C(=O)Nc1cc(OC)nc(-c2ccccc2)n1 [Symbol 921] | 6.2 mg/kg | 25 mg/kg | 30 mg/kg | 100 mg/kg | 15 mg/kg |
| CCOC(=O)C(=O)Nc1cc(SCCOC)nc(C)n1 [Symbol 955] | 2.3 mg/kg | 7 mg/kg | 6.9 mg/kg | 25 mg/kg | 2.8 mg/kg |
| CCOC(=O)C(=O)Nc1cc(OCCOC)nc(C)n1 [Symbol 923] | 4.1 mg/kg | 9 mg/kg | 25 mg/kg | 70 mg/kg | 3.2 mg/kg |
| CCOC(=O)C(=O)Nc1cc(SCCOC(=O)C(=O)OCC)ncn1 [Symbol 940] | 5.2 mg/kg | 8 mg/kg | 12 mg/kg | 43 mg/kg | 3.6 mg/kg |
| CCOC(=O)C(=O)Nc1ccncn1 [Symbol 933] | 3.8 mg/kg | 10 mg/kg | 32 mg/kg | 96 mg/kg | 4.7 mg/kg |
| CCOC(=O)C(=O)Nc1cc(OC)nc(C)n1 [Symbol 913] | 3.6 mg/kg | 15 mg/kg | < 5 mg/kg | > 100 mg/kg | 4.2 mg/kg |
| CCOC(=O)C(=O)Nc1cc(SCCOC)ncn1 [Symbol 957] | 6.2 mg/kg | 14 mg/kg | 5.8 mg/kg | 23 mg/kg | 9.4 mg/kg |
| CCOC(=O)C(=O)Nc1cc(Cl)ncn1 [Symbol 931] | 6.3 mg/kg | 22 mg/kg | 24 mg/kg | > 100 mg/kg | 7.2 mg/kg |
| CCOC(=O)C(=O)Nc1cc(OCCOC)ncn1 [Symbol 932, 4-carbethoxycarbonilamino-6-(β-methoxyethoxy)-pyrimidine] | 2.1 mg/kg | 7 mg/kg | 10 mg/kg | 26 mg/kg | 3.2 mg/kg |
| CCOC(=O)C(=O)Nc1cc(SC)nc(C)n1 [Symbol 928] | 7.2 mg/kg | 14 mg/kg | 30 mg/kg | > 100 mg/kg | 2 mg/kg |
